Measured values as given in patent US9137998B2, “Pesticidal compositions and related methods” (DOW AGROSCIENCES LLC, priority 2013, dated 2015).

Experiments:
[1] = tested on: Green Peach Aphid (Myzus persicae) (GPA) (MYZUPE); assay: Bioassay for Green Peach Aphid (GPA), foliar spray on cabbage seedlings; type: in vivo; conditions: 200 ppm foliar spray, graded after three days, Abbott corrected % control; for mortality at 200 ppm: Myzus persicae, 72 h, read-out: % Control (or Mortality) rating, GPA
Experimental: Cabbage seedlings grown in 3-inch pots, with 2-3 small (3-5 cm) true leaves, were used as test substrate. The seedlings were infested with 20-50 GPA (wingless adult and nymph stages) one day prior to chemical application. Four pots with individual seedlings were used for each treatment. Test compounds (2 mg) were dissolved in 2 mL of acetone/methanol (1:1) solvent, forming stock solutions of 1000 ppm test compound. The stock solutions were diluted 5× with 0.025% Tween 20 in H2O to obtain the solution at 200 ppm test compound. A hand-held aspirator-type sprayer was used for spraying a solution to both sides of […] leaves until runoff. Reference plants (solvent check) were sprayed with the diluent only containing 20% by volume of acetone/methanol (1:1) solvent. Treated plants were held in a holding room for three days at approximately 25° C. and ambient relative humidity (RH) prior to grading. Evaluation was conducted by counting the number of live aphids per plant under a microscope. Percent control was measured by using Abbott's correction formula (W. S. Abbott, “A Method of Computing the Effectiveness of an Insecticide” J. Econ. Entomol. 18 (1925), pp. 265-267) as follows. Corrected % Control=100*(X−Y)/X
X=No. of live aphids on solvent check plants and
Y=No. of live aphids on treated plants
Biological Data for Green Peach Aphid (GPA) (MYZUPE) and Sweetpotato Whitefly-crawler (WF) (BEMITA)” (See Table Section).

[2] = tested on: Sweetpotato Whitefly-Crawler (Bemisia tabaci) (WF) (BEMITA); assay: Insecticidal test for Sweetpotato Whitefly-crawler (WF) in foliar spray assay on cotton plants; type: in vivo; conditions: 200 ppm foliar spray, graded after 9 days, Abbott corrected % control; for mortality at 200 ppm: Bemisia tabaci, 216 h, read-out: % Control (or Mortality) rating, WF
Experimental: Cotton plants (Gossypium hirsutum) grown in 3-inch pots, with 1 small (4-5 cm) true leaves, were used as test substrate. The plants were infested with 200-400 whitefly eggs 4-5 days prior to chemical application. Four pots with individual plants were used for each treatment. Test compounds (2 mg) were dissolved in 1 mL of acetone solvent, forming stock solutions of 2000 ppm test compound. The stock solutions were diluted 10× with 0.025% Tween 20 in H2O (diluents) to obtain the solution at 200 ppm test compound. A hand-held aspirator-type sprayer was used for spraying a solution to both sides of cotton leaves until runoff. Reference plants (solvent check) were sprayed with the diluent only containing 10% by volume of acetone solvent. Treated plants were held in a holding room for 9 days at approximately 25° C. and ambient relative humidity (RH) prior to grading. Evaluation was conducted by counting the number of live 3-4 nymph stage per plant under a microscope. Percent control was measured by using Abbott's correction formula (W. S. Abbott, “A Method of Computing the Effectiveness of an Insecticide” J. Econ. Entomol. 18 (1925), pp. 265-26′7) as follows. Corrected % Control=100*(X−Y)/X
X=No. of live nymphs on solvent check plants and
Y=No. of live nymphs on treated plants. […]

Compound | mortality at 200 ppm [1] | mortality at 200 ppm [2] | % Control (or Mortality) rating, GPA [1] | % Control (or Mortality) rating, WF [2]
C#CCN(C(=O)C1CC1(F)F)c1sc(-c2cccnc2)nc1Cl (stereo not drawn) [Compound F5, N-(4-chloro-2-(pyridin-3-yl)thiazol-5-yl)-2,2-difluoro-N-(prop-2-yn-1-yl)cyclopropanecarboxamide] | 80 to 100% | 80 to 100% |  | 
4-Chloro-N-(prop-2-yn-1-yl)-2-(pyrimidin-5-yl)thiazol-5-amine hydrochloride [CA2] |  |  | B (More than 0-Less than 80) | B (More than 0-Less than 80)
C#CC(C)N(C(=O)CCSCCC(F)(F)F)c1sc(-c2cccnc2)nc1C (stereo not drawn) [Compound P32, N-(But-3-yn-2-yl)-N-(4-methyl-2-(pyridin-3-yl)thiazol-5-yl)-3-((3,3,3-trifluoropropyl)thio) propanamide] | 80 to 100% | 80 to 100% |  | 
C#CCN(C(=O)CC[S+]([O-])CC1CC1(F)F)c1sc(-c2cccnc2)nc1C (stereo not drawn) [FA9, 3-(((2,2-Difluorocyclopropyl)methyl)sulfinyl)-N-(4-methyl-2-(pyridin-3-yl)thiazol-5-yl)-N-(prop-2-yn-1-yl)propanamide] | 80 to 100% | 80 to 100% |  | 
C#CCN(C(=O)CC[S+]([O-])CCC(F)(F)F)c1sc(-c2cccnc2)nc1C (stereo not drawn) [Compound P7, N-(4-Methyl-2-(pyridin-3-yl)thiazol-5-yl)-N-(prop-2-yn-1-yl)-3-((3,3,3-trifluoropropyl)sulfinyl) propanamide] | 80 to 100% | 80 to 100% |  | 
2-Methyl-N-(4-methyl-2-(pyridin-3-yl)thiazol-5-yl)-3-(methylsulfinyl)-N-(prop-2-yn-1-yl) propanamide [Compound P5] |  |  | A (80-100) | A (80-100)
C#CCN(C(=O)CCSCC1CC1(F)F)c1sc(-c2cncc(F)c2)nc1C (stereo not drawn) [Compound P22, 3-(((2,2-Difluorocyclopropyl)methyl)thio)-N-(2-(5-fluoropyridin-3-yl)-4-methylthiazol-5-yl)-N-(prop-2-yn-1-yl)propanamide] | 80 to 100% | 80 to 100% |  | 
C#CCN(C(=O)OC(C)(C)C)c1sc(-c2cncc(F)c2)nc1C [CA8, tert-Butyl (2-(5-fluoropyridin-3-yl)-4-methylthiazol-5-yl)(prop-2-yn-1-yl) carbamate] | 0 to 80% | 80 to 100% |  | 
C#CCN(C(=O)CC[S+]([O-])CCC(F)(F)F)c1sc(-c2cncc(F)c2)nc1Cl (stereo not drawn) [FA7, N-(4-Chloro-2-(5-fluoropyridin-3-yl)thiazol-5-yl)-N-(prop-2-yn-1-yl)-3-((3,3,3-trifluoropropyl)sulfinyl)propanamide] | 80 to 100% | 80 to 100% |  | 
C#CCN(C(=O)CCSCC1CC1(F)F)c1sc(-c2cccnc2)nc1Cl (stereo not drawn) [Compound F8, N-(4-Chloro-2-(pyridin-3-yl)thiazol-5-yl)-3--(((2,2-difluorocyclopropyl)methyl)thio)-N-(prop-2-yn-1-yl)propanamide] | 80 to 100% | 80 to 100% |  | 
CC#CCN(C(=O)CCSCCC(F)(F)F)c1sc(-c2cccnc2)nc1C [Compound P16, N-(But-2-yn-1-yl)-N-(4-methyl-2-(pyridin-3-yl)thiazol-5-yl)-3-((3,3,3-trifluoropropyl)thio) propanamide] | 80 to 100% | 80 to 100% |  | 
C#CCN(C(=O)CCSCCC(F)(F)F)c1sc(-c2cccnc2)nc1C [Compound P6, N-(4-Methyl-2-(pyridin-3-yl)thiazol-5-yl)-N-(prop-2-yn-1-yl)-3-((3,3,3-trifluoropropyl)thio) propanamide] |  | 80 to 100% |  | 
C#CCN(C(=O)CCSCCC(F)(F)F)c1sc(-c2cncc(F)c2)nc1C [Compound P19, N-(2-(5-Fluoropyridin-3-yl)-4-methylthiazol-5-yl)-N-(prop-2-yn-1-yl)-3-((3,3,3-trifluoropropyl)thio)propanamide] | 80 to 100% | 80 to 100% |  | 
C#CCN(C(=O)OC(C)(C)C)c1sc(-c2cncc(F)c2)nc1Cl [CA9, tert-Butyl (4-chloro-2-(5-fluoropyridin-3-yl)thiazol-5-yl)(prop-2-yn-1-yl) carbamate] | 80 to 100% | 80 to 100% |  | 
C#CCN(C(=O)CCSC)c1sc(-c2cncc(F)c2)nc1C [FA4, N-(2-(5-Fluoropyridin-3-yl)-4-methylthiazol-5-yl)-3-(methylthio)-N-(prop-2-yn-1-yl)propanamide] | 80 to 100% | 80 to 100% |  | 
4-Chloro-2-(5-fluoropyridin-3-yl)-N-(prop-2-yn-1-yl)thiazol-5-amine hydrochloride [CA1] |  |  | B (More than 0-Less than 80) | B (More than 0-Less than 80)
C#CCN(C(=O)CCS(=O)(=O)CCC(F)(F)F)c1sc(-c2cncc(F)c2)nc1Cl [FA11, N-(4-Chloro-2-(5-fluoropyridin-3-yl)thiazol-5-yl)-N-(prop-2-yn-1-yl)-3-((3,3,3-trifluoropropyl)sulfonyl)propanamide] | 80 to 100% | 80 to 100% |  | 
CC#CCN(C(=O)OC(C)(C)C)c1sc(Br)nc1C [CA6, tert-Butyl (2-bromo-4-methylthiazol-5-yl)(but-2-yn-1-yl)carbamate] | 0 to 80% | < 0% |  | 
C#CCN(C(=O)CCS(=O)(=O)CC1CC1(F)F)c1sc(-c2cccnc2)nc1C (stereo not drawn) [FA13, 3-(((2,2-Difluorocyclopropyl)methyl)sulfonyl)-N-(4-methyl-2-(pyridin-3-yl)thiazol-5-yl)-N-(prop-2-yn-1-yl)propanamide] | 80 to 100% | 80 to 100% |  | 
C#CCN(C(=O)OC(C)(C)C)c1sc(-c2cccnc2)nc1Cl [Compound C3, tert-butyl (4-chloro-2-(pyridin-3-yl)thiazol-5-yl)(prop-2-yn-1-yl)carbamate] | 80 to 100% | 80 to 100% |  | 
C#CCN(C(=O)CCSC)c1sc(-c2cccnc2)nc1C [Compound P1, N-(4-Methyl-2-(pyridin-3-yl)thiazol-5-yl)-3-(methylthio)-N-(prop-2-yn-1-yl)propanamide] | 80 to 100% | 80 to 100% |  | 
C#CCN(C(=O)C(C)CSC)c1sc(-c2cccnc2)nc1C (stereo not drawn) [Compound P2, 2-Methyl-N-(4-methyl-2-(pyridin-3-yl)thiazol-5-yl)-3-(methylthio)-N-(prop-2-yn-1-yl) propanamide] | 80 to 100% | 80 to 100% |  | 
C#CCN(C(=O)CC[S+]([O-])CCC(F)(F)F)c1sc(-c2cccnc2)nc1Cl (stereo not drawn) [FA6, N-(4-chloro-2-(pyridin-3-yl)thiazol-5-yl)-N-(prop-2-yn-1-yl)-3-((3,3,3trifluoropropyl)sulfinyl)propanamide] | 80 to 100% | 80 to 100% |  | 
C#CCN(C(=O)CCSCCC(F)(F)F)c1sc(-c2cncc(F)c2)nc1Cl [FA2, N-(4-Chloro-2-(5-fluoropyridin-3-yl)thiazol-5-yl)-N-(prop-2-yn-1-yl)-3-((3,3,3-trifluoropropyl)thio)propanamide] | 80 to 100% | 80 to 100% |  | 
C#CCN(C(=O)C(C)CSC)c1sc(-c2cncc(F)c2)nc1C (stereo not drawn) [FA5, N-(2-(5-Fluoropyridin-3-yl)-4-methylthiazol-5-yl)-2-methyl-3-(methylthio)-N-(prop-2-yn-1-yl) propanamide] | 80 to 100% | 80 to 100% |  | 
CC#CCN(C(=O)CCSCC1CC1(F)F)c1sc(-c2cccnc2)nc1C (stereo not drawn) [FA14, N-(But-2-yn-1-yl)-3-(((2,2-difluorocyclopropyl)methyl)thio)-N-(4-methyl-2-(pyridin-3-yl)thiazol-5-yl)propanamide] | 80 to 100% | 80 to 100% |  | 
C#CCNc1sc(-c2cccnc2)nc1C [CA14, 4-Methyl-N-(prop-2-yn-1-yl)-2-(pyridin-3-yl)thiazol-5-amine] | 0 to 80% | 0 to 80% |  | 
C#CCN(C(=O)OC(C)(C)C)c1sc(Cl)nc1Cl [CA3, tert-butyl (2,4-dichlorothiazol-5-yl)(prop-2-yn-1-yl)carbamate] | < 0% |  |  | 
